*1 amine or outer side, *2 acyl side, *3 side chain or, on linkers, in order; H or OH if unused. Where a SMILES comes first, the peptide text is derived from it. Bridges are numbered along the chain shown (N, C = ends). [ ]: non-standard residue; d: D form. The star is where a group is joined. X4 = CN([C@@H](Cc1cc(Cl)ccc1-c1cnn(C)c1)C(=O)[*:2])[*:1]; X5 = CN([C@@H](Cc1cc(Cl)nn1-c1ccccc1)C(=O)[*:2])[*:1]; cBuCO(3,3-F2-1-CF3) = O=C(C1(C(F)(F)F)CC(F)(F)C1)*; NMePhe(2,5-Cl2) = CN[C@@H](Cc1cc(Cl)ccc1Cl)C(=O)O; X2 = CCCN([C@@H](Cc1cc(Cl)ccc1Cl)C(=O)[*:2])[*:1]; Nle(6-morpholino) = N[C@@H](CCCCN1CCOCC1)C(=O)O; X6 = CN([C@H](Cc1cc(Cl)ccc1Cl)C(=O)[*:2])[*:1]; Pro(trans-4-F) = O=C(O)[C@@H]1C[C@@H](F)CN1; dPro(trans-4-F) = O=C(O)[C@H]1C[C@H](F)CN1; X3 = O=C([C@@H](c1cccnc1)C1CCCCC1)*; Gly(cPr) = N[C@H](C(=O)O)C1CC1; X1 = C[C@@](O)(C(=O)*)C(F)(F)F; Cba = N[C@@H](CC1CCC1)C(=O)O; NMeK = CN[C@@H](CCCCN)C(=O)O; dCba = N[C@H](CC1CCC1)C(=O)O; dNMeK = CN[C@H](CCCCN)C(=O)O; dNva = CCC[C@@H](N)C(=O)O; Ac3c = NC1(C(=O)O)CC1; Aib = CC(C)(N)C(=O)O
Columns and labels:
[1] = test system: human peripheral blood CD34+ cells; assay type: cell-based; conditions: CD34+ haematopoietic stem and progenitor cells, even at high doses
46 human SCLC cell lines = test: Cell Titer Glo proliferation assay, panel of 46 SCLC cell lines; assay type: cell-based; conditions: 4–8 days
RPE1 cells = test: Cell-count dose–response assay; assay type: cell-based, human; conditions: RPE1, even at high doses
NCI-H1048 cells [2] = test: Live-cell imaging of mitosis; assay type: cell-based, human; conditions: NCI-H1048 GFP–H2B, 20 nM
[3] = test system: p-KNL1 in NCI-H1048 cells; test: Immunoblot of p-KNL1; assay type: cell-based, human
NCI-H69 cells = test: Nocodazole synchronization, propidium iodide FACS; assay type: cell-based, human; conditions: NCI-H69, 60 ng ml−1, overnight
NCI-H1048 cells [4] = test: Cell-count dose–response assay; assay type: cell-based, human; conditions: for activity in proliferation, apoptosis and cell cycle assays: NCI-H1048
[5] = Body weight, NCI-H1048 xenograft study; assay type: in vivo, mouse; conditions: 100 mg per kg daily 14 days
NCI-H69 xenografts = test: NCI-H69 cell line xenograft efficacy study; assay type: in vivo, mouse; conditions: 100 mg per kg daily i.v. 14 days
NCI-H1048 xenografts = test: NCI-H1048 cell line xenograft efficacy study; assay type: in vivo, mouse; conditions: 100 mg per kg daily i.v. 14 days
[6] = Body weight, NCI-H69 xenograft study; assay type: in vivo, mouse; conditions: 100 mg per kg daily 14 days

## CC(C)C[C@@H]1NC(=O)[C@@H](N(C)C(=O)[C@H](CC2CCC2)NC(=O)[C@@H]2C[C@@H](F)CN2C(=O)C2(C(F)(F)F)CC(F)(F)C2)CCCCNC(=O)C2(CC2)NC(=O)[C@H](Cc2cc(Cl)ccc2Cl)N(C)C1=O [CIRc-004] ({cBuCO(3,3-F2-1-CF3)}-[Pro(trans-4-F)][Cba][NMeK]L[NMePhe(2,5-Cl2)][Ac3c]; lactam 3-C)
[1]
  sensitivity of normal cells (mitotic arrest, apoptosis): insensitive
46 human SCLC cell lines
  sensitivity of 46 SCLC cell lines in anti-proliferation assays: Nearly all lines were highly sensitive
RPE1 cells
  sensitivity of normal cells (mitotic arrest, apoptosis): insensitive
NCI-H1048 cells [2]
  anaphase initiation (live-cell imaging): blocked anaphase initiation

## COc1ccc(Oc2cc(NCCC(F)(F)F)c3ncc(-c4ccc(C(=O)NC5CC5)c(C)c4)n3n2)c(F)c1F [BAY-1217389]
[3]; 3 nM, NCI-H1048
  KNL1 phosphorylation and proliferation: blocked KNL1 phosphorylation without affecting proliferation

## COC(=O)Nc1nc2ccc(C(=O)c3cccs3)cc2[nH]1 [nocodazole]
NCI-H69 cells
  cells in mitotic arrest: around 90%

## CC(C)C[C@H]1NC(=O)[C@H](N(C)C(=O)[C@@H](CC2CCC2)NC(=O)[C@H]2C[C@H](F)CN2C(=O)C2(C(F)(F)F)CC(F)(F)C2)CCCCNC(=O)C2(CC2)NC(=O)[C@@H](Cc2cc(Cl)ccc2Cl)N(C)C1=O [CIRc-005] ({cBuCO(3,3-F2-1-CF3)}-[dPro(trans-4-F)][dCba][dNMeK][dL][X6][Ac3c]; lactam 3-C)
NCI-H1048 cells [4]; NCI-H1048, 200 nM
  effect on cellular proliferation: had no effect on cellular proliferation

## CCC[C@H]1NC(=O)[C@H](Cc2cc(Cl)ccc2-c2cnn(C)c2)N(C)C(=O)[C@H](CC(C)C)NC(=O)[C@@H](N(C)C(=O)[C@H](CCCCN2CCOCC2)NC(=O)[C@@H](c2cccnc2)C2CCCCC2)CCCCNC1=O [CIRc-018] (X3-[Nle(6-morpholino)][NMeK]L[X4][dNva]; lactam 2-C)
NCI-H1048 cells [4]
  activity in proliferation, apoptosis and cell cycle assays: lacked activity

## CCCN1C(=O)[C@H](CC(C)C)NC(=O)[C@@H](N(C)C(=O)[C@H](CC2CCC2)NC(=O)[C@@H]2C[C@@H](F)CN2C(=O)[C@@](C)(O)C(F)(F)F)CCCCNC(=O)C2(CC2)NC(=O)[C@@H]1Cc1cc(Cl)ccc1Cl [CIRc-028] (X1-[Pro(trans-4-F)][Cba][NMeK]L[X2][Ac3c]; lactam 3-C)
[5]
  tolerability, body weight: well tolerated without weight loss
NCI-H69 xenografts
  tumour response: induced tumour regressions
NCI-H1048 xenografts
  tumour response: substantially inhibited growth
[6]
  tolerability, body weight: well tolerated without weight loss

## COCc1cc(C(=O)Nc2cc([C@H]3CC[C@@H](OC(=O)NC(C)C)C3)[nH]n2)n(C)n1 [PF-07104091]
[3]; NCI-H1048 cells, 24 h
  SAC activation: did not activate the SAC

## CC(C)C[C@@H]1NC(=O)[C@@H](N(C)C(=O)[C@@H](NC(=O)[C@@H]2C[C@@H](F)CN2C(=O)C2(C(F)(F)F)CC(F)(F)C2)C2CC2)CCCCNC(=O)C(C)(C)NC(=O)[C@H](Cc2cc(Cl)nn2-c2ccccc2)N(C)C1=O [CIRc-019] ({cBuCO(3,3-F2-1-CF3)}-[Pro(trans-4-F)][Gly(cPr)][NMeK]L[X5][Aib]; lactam 3-C)
NCI-H1048 cells [4]
  activity in proliferation, apoptosis and cell cycle assays: lacked activity

From paper PMC12527934 (Nature, 2025)
